This note sets out measurements from article PMC11169512, “Structural basis for urate recognition and apigenin inhibition of human GLUT9” (Nature Communications, 2024).

What all share (format): binding
For assay [1], the target named is T1, GLUT9 (Homo sapiens, UniProt Q9NRM0, N333A).
T1 construct: gene SLC2A9; full length human SLC2A9, N-terminal twin strep and FLAG tag
T1 sequence (Q9NRM0 1-540 N333A): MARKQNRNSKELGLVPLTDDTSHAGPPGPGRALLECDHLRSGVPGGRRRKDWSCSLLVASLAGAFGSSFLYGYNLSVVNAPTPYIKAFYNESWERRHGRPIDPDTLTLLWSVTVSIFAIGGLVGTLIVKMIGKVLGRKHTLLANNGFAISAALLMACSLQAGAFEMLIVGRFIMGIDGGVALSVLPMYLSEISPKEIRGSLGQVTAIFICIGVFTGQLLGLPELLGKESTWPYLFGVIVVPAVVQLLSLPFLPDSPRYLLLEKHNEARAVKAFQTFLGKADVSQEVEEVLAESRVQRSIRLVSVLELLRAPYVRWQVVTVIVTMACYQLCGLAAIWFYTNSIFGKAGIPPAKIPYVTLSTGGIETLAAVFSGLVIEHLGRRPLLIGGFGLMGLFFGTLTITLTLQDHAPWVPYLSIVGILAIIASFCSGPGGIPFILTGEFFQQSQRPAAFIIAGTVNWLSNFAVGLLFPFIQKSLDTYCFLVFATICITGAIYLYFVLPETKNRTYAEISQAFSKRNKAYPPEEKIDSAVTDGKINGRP
As to the kind of experiment: MST with purified protein.

The target of assay [2] is T2, GLUT9 (Homo sapiens, UniProt Q9NRM0, Y327Q).
T2 construct: gene SLC2A9; full length human SLC2A9, N-terminal twin strep and FLAG tag
T2 sequence (Q9NRM0 1-540 Y327Q): T1 sequence (Q9NRM0 1-540 N333A) with Y327Q, A333N
As to the kind of experiment: MST with purified protein.

For assay [3], the target named is T3, GLUT9 (Homo sapiens, UniProt Q9NRM0).
T3 construct: gene SLC2A9; full length human SLC2A9, N-terminal twin strep and FLAG tag
T3 sequence (Q9NRM0 1-540): T1 sequence (Q9NRM0 1-540 N333A) with A333N
Description: cryo-EM structure ([…] Å), MST Kd; patch clamp transport current. Background: The patch-clamp technique gives a direct electrical read-out from membranes.

The target in assay [4] is T4, GLUT9 (Homo sapiens, UniProt Q9NRM0, W336F).
T4 construct: gene SLC2A9; full length human SLC2A9, N-terminal twin strep and FLAG tag
T4 sequence (Q9NRM0 1-540 W336F): T1 sequence (Q9NRM0 1-540 N333A) with A333N, W336F
Description: MST with purified protein.

Assay [5] concerns the target T5, GLUT9 (Homo sapiens, UniProt Q9NRM0, E364A).
T5 construct: gene SLC2A9; full length human SLC2A9, N-terminal twin strep and FLAG tag
T5 sequence (Q9NRM0 1-540 E364A): T1 sequence (Q9NRM0 1-540 N333A) with A333N, E364A
Description: MST with purified protein.

In assay [6] the target is T6, GLUT9 (Homo sapiens, UniProt Q9NRM0, W336A).
T6 construct: gene SLC2A9; full length human SLC2A9, N-terminal twin strep and FLAG tag
T6 sequence (Q9NRM0 1-540 W336A): T1 sequence (Q9NRM0 1-540 N333A) with A333N, W336A
Description: MST with purified protein.

The target of assay [7] is T7, GLUT9 (Homo sapiens, UniProt Q9NRM0, Y327A).
T7 construct: gene SLC2A9; full length human SLC2A9, N-terminal twin strep and FLAG tag
T7 sequence (Q9NRM0 1-540 Y327A): T1 sequence (Q9NRM0 1-540 N333A) with Y327A, A333N
Description: MST with purified protein.

Assay [8] concerns the target T8, GLUT9 (Homo sapiens, UniProt Q9NRM0, C427A).
T8 construct: gene SLC2A9; full length human SLC2A9, N-terminal twin strep and FLAG tag
T8 sequence (Q9NRM0 1-540 C427A): T1 sequence (Q9NRM0 1-540 N333A) with A333N, C427A
Description: MST with purified protein.

For assay [9], the target named is T9, GLUT9 (Homo sapiens, UniProt Q9NRM0, N458A).
T9 construct: gene SLC2A9; full length human SLC2A9, N-terminal twin strep and FLAG tag
T9 sequence (Q9NRM0 1-540 N458A): T1 sequence (Q9NRM0 1-540 N333A) with A333N, N458A
As to the kind of experiment: MST with purified protein.

For assay [10], the target named is T3, GLUT9. As to the kind of experiment: cryo-EM structure ([…] Å), MST Kd; patch clamp IC50 […].

The structures appear in SMILES notation. Changes are numbered by the printed parent chain.

As to `O=c1[nH]c(=O)c2[nH]c(=O)[nH]c2[nH]1` [UA, urate], the dissociation constant Kd (commonly a measure of binding affinity in units of concentration) at GLUT9 [1] turned out to be 472 ± 52.2 µM; on GLUT9 [2], 867 ± 168 µM; on GLUT9 [3], 231 ± 17.1 µM; on GLUT9 [4] it was 361 ± 80.3 µM; at GLUT9 [5] it was 681 ± 126 µM.
For the compound `O=c1cc(-c2ccc(O)cc2)oc2cc(O)cc(O)c12` [API, apigenin], the Kd on GLUT9 [6] is 1.3 ± 0.3 µM; at GLUT9 [7], 2.2 ± 0.7 µM; at GLUT9 [8], 1 ± 0.2 µM; on GLUT9 [9], 4.1 ± 1.1 µM; on GLUT9 [10], 0.5 ± 0.1 µM.
